Measured values: a melting point compilation (Tetko et al.; mined from patent text by program, amines drawn as free bases though some values may be those of a salt)

`CSCC[C@H](NC(=O)Cc1cc(F)cc(F)c1)C(=O)N[C@@H]1C(=O)Nc2ccccc2S[C@@H]1c1ccccc1` showed a melting point of 85 to 90 °C. Molecule `CC(=Cc1c[nH]c2ccc(CNS(C)(=O)=O)cc12)[N+](=O)[O-]` has a melting point of 201 to 202 °C. Molecule `COCCNC(=O)c1cccc(-c2cccc3cc(Cc4cccc(F)c4)sc23)c1` has a melting point of 108 to 110 °C. Work on `CC#CCOc1ccc(S(=O)(=O)N(C)C(C(=O)O)c2ccc(Cl)cc2)cc1` (stereo unspecified) yielded a melting point of 170 to 172 °C. `C[C@H](Cc1ccc2c(c1)cc(C(=O)O)n2CC1CC1)NC[C@H](O)c1cccc(Cl)c1` showed a melting point of 207 to 209 °C. `O=C1Nc2cc3c(cc2SC1CCCBr)OCO3` (stereo unspecified) showed a melting point of 168 to 169 °C. `COC(=O)CCc1oc2ccc(C#N)cc2c1C(=O)c1ccc(O)cc1` showed a melting point of 156 to 158 °C. `CCCCc1cc(C#N)ncc1C(=O)O` showed a melting point of 267 to 268 °C. Molecule `O=C(Cc1ccc(Cl)c(Cl)c1)N1CCCC(N2CCCC2)C1` (stereo unspecified) has a melting point of 134 to 135 °C. With `Cc1c(OC(=O)C(C)(C)C)c(=O)ccn1C` the melting point was 112 to 113 °C. For `CCCCC(CC)COc1cc(-c2ccccn2)nc(-c2ccccn2)c1` (stereo unspecified), the melting point was 58.5 °C. For `Cc1c(NC(=O)CC(C)(C)C)cc2c(c1C)OC(C)(C)C2c1ccccc1` (stereo unspecified), the melting point was 182 to 183 °C. `Cc1sc2ncc(C(O)CC(O)c3ccccc3)n2c1C` (stereo unspecified) gave a melting point of 152 to 153 °C. `Cc1cc2ccccc2n1-c1ccc(OCc2ccccc2)cc1` gave a melting point of 95 to 96 °C. With `COC(=O)C1CC(C#N)(c2ccccc2Cl)CCC1=O` (stereo unspecified) the melting point was 113 to 118 °C. For `COCCN1CCc2cc(OC)c(O)cc2C1C1(c2ccccc2Cl)CC1` (stereo unspecified), the melting point was 115 to 120 °C. For `CC1(C)CC(=O)C(C)(C)c2cc(C=O)ccc21`, the melting point was 82 to 84 °C. For `CCn1nc(-c2ccc(OC)cc2)cc(C(=O)NC)c1=O`, the melting point was 122 to 123 °C. `CC(C)(C)c1cc(C(=O)NN(C(=O)O)C(C)(C)C)cc(C(C)(C)C)c1O` gave a melting point of 196 °C. In the case of `CN(C)c1ccccc1CNC(=O)C1Cc2ccccc2N1S(=O)(=O)c1ccc(-c2cccc(C(F)(F)F)c2)cc1` (stereo unspecified), the melting point is reported as 66 °C. Work on `C=C(C)c1nn(-c2c(Cl)cc(C(F)(F)F)cc2Cl)cc1C1CC1(Br)Br` (stereo unspecified) yielded a melting point of 86.5 to 88.2 °C. For `Nc1nc2ccccc2c2c1ncn2CCCCCCCCNC(=O)c1ccccc1`, the melting point was 133 to 137 °C. `COc1ccc2c(c1)/C(=C\CNC(=O)NC(C)(C)C)C(C)(C)CC2` showed a melting point of 175 to 176 °C. In the case of `COc1ccc(C=Cc2nc3c(OC)c(C)c(C)c(OC)c3[nH]2)cc1OC`, the melting point is reported as 116 to 119 °C. `Cc1cc(CCC(=O)O)no1` gave a melting point of 82 to 84 °C. `O=P(O)(O)Cc1ccccc1C(F)(F)F` showed a melting point of 190 to 192 °C. In the case of `CC(C)(CONCc1ccccc1Cl)C(=O)O`, the melting point is reported as 78 to 80 °C. Molecule `CN(C)c1cc2nc(C(C)(C)C)sc2cc1N=C=S` has a melting point of 63 to 66 °C. `COc1ccc(OC)c(C2Nc3ccccc3S2)c1` (stereo unspecified) showed a melting point of 96 to 99 °C. For `COc1cc(C(C)=NO)ccc1OCCCN1CCC(c2noc3cc(F)ccc23)CC1`, the melting point was 168 to 170 °C. In the case of `CCOC(=O)Nc1nn(C)c2cc(OCc3ccccc3)ccc12`, the melting point is reported as 204 °C. In the case of `CN1C(=O)C(NC(=O)c2cc3ccccc3[nH]2)C(=O)N(c2ccccc2)c2cc(Cl)ccc21` (stereo unspecified), the melting point is reported as 280 °C. In the case of `O=C(O)C=CCCCc1cccc2cncn12`, the melting point is reported as 142 to 144 °C. For `CCn1c(C=O)c(-c2ccc(F)cc2)c(C(C)C)c1C(=O)O`, the melting point was 182 °C. In the case of `COCC1=NC(NC(=O)Nc2cccc(C)c2)C(=O)N(CC(=O)N2CC3CCC(CC3)C2)c2c(C)cccc21` (stereo unspecified), the melting point is reported as 178 to 182 °C. Work on `CCCc1cc(CC(=O)O)ccc1OC1COc2ccc(C(C)=O)c(O)c2C1` (stereo unspecified) yielded a melting point of 129 to 130 °C. `CNCc1cnc(Nc2n[nH]c3ccc(-c4ncccc4Cl)cc23)s1` gave a melting point of 200 to 201 °C. `CC(C)(C)OC(=O)NCC(=O)N1CCC(=C2c3ccc(Cl)cc3CCc3cccnc32)CC1` showed a melting point of 209 to 211 °C. For `C[C@@H]1S[C@@H](C(=O)Nc2ccc(CC3SC(=O)NC3=O)cc2)Cc2cc3c(cc2C1=O)OCO3` (stereo partly specified), the melting point was 139 to 144 °C. In the case of `CCOC1OC(CO)C(COc2c(C(C)(C)C)cc(SC(C)(C)Sc3cc(C(C)(C)C)c(O)c(C(C)(C)C)c3)cc2C(C)(C)C)O1` (stereo unspecified), the melting point is reported as 60 to 62 °C. For `C#CCn1c(C)c(CO)sc1=O`, the melting point was 62 °C. For `Cc1ccc(C)c(OCc2ccccc2C(C#N)=NOC(F)F)c1`, the melting point was 104 to 108 °C. `Cc1[nH]cc2c(=O)n(-c3ccc(Cl)cc3)nc-2c1-c1ccc(-c2cccnc2)cc1` showed a melting point of 308 to 309 °C. With `Cn1c2cc(C(O)CO)ccc2c2c3c(c(-c4ccccc4Cl)cc21)C(=O)NC3=O` (stereo unspecified) the melting point was 252 to 255 °C. Work on `N#Cc1cc2cccnc2nc1Cl` yielded a melting point of 273 °C. With `Cc1ccc(O)c(Cn2c(NCCCN3CCOCC3)nc3ccc(CNc4c(C)cc(CCC#N)cc4C)cc32)n1` the melting point was 114 °C. In the case of `CC(C)(C)OC(=O)C(C(=O)c1ccc(NS(C)(=O)=O)cc1Cl)C(=O)C1CC1` (stereo unspecified), the melting point is reported as 137 to 140 °C. With `CC(=O)CC(=O)C=Cc1cc(O)ccc1Br` the melting point was 185 to 188 °C. For `CCCCCNc1nc(NC(C)C)c2ncn(CC(=O)O)c2n1`, the melting point was 173 to 176 °C. Work on `CCCCCCCCCCCC#Cc1cnccc1C=C(C(=O)O)C(=O)O` yielded a melting point of 175 to 177 °C. Molecule `CCSc1ccc(-c2cnccn2)c2c1C(=O)CC(C)C2` (stereo unspecified) has a melting point of 152 to 154 °C. `CC1C(=O)Nc2c(C(=O)c3ccccc3)cccc21` (stereo unspecified) gave a melting point of 125 to 127 °C. In the case of `Nc1cc(Cl)c(Cl)c(Br)c1[N+](=O)[O-]`, the melting point is reported as 132 to 134 °C. `CCOC(=O)c1ccc(NC(=O)NCCn2c(C)ccc2C)cc1` gave a melting point of 181 to 182 °C. In the case of `CCCCOCCCn1c(CCCC)nc2c(N)nc3cccnc3c21`, the melting point is reported as 101 to 102 °C. In the case of `Cc1cccc2c1nc(COc1ccc(Cl)cc1)n2CCC(C)CNCc1ccccc1` (racemic), the melting point is reported as 84.5 to 87 °C. Molecule `Cc1ccc(N2CCCN(c3ccnc4sc(C(N)=O)c(N)c34)CC2)cc1[N+](=O)[O-]` has a melting point of 114 to 117 °C. `CN(C)C(=O)C(C)(C)Sc1nc2ccccc2cc1-c1ccccc1` gave a melting point of 149 to 156 °C. With `CCOC(=O)C(=O)Nc1ccc(Cc2ccc(NC(=O)C(=O)OCC)cc2)cc1` the melting point was 146 to 147 °C. Work on `CCN1C(=O)N(CC2CC2)c2ccc(Cl)cc2C1c1ccccc1` (stereo unspecified) yielded a melting point of 88 to 90 °C. Work on `CCCn1c(=O)c2nc(-c3ccc(/C=C/C(=O)O)cc3)[nH]c2n(C)c1=O` yielded a melting point greater than 300 °C. With `Nc1nc(O)c2cc(CN(Cc3c[nH]c(=O)[nH]c3=O)c3ccc(C(=O)N[C@@H](CCC(=O)O)C(=O)O)cc3)ccc2n1` the melting point was 250 to 255 °C. `COC(=O)CC1=C(C)/C(=C/c2ccc(SC)cc2)c2ccc(F)cc21` gave a melting point of 73 to 75 °C. Molecule `CCc1noc(-c2cc3c4ccccc4n(CCCN4CCC(O)(c5ccccc5)CC4)c3cn2)n1` has a melting point of 169 to 170 °C. Work on `CC(c1ccc(-c2ccccc2)c(F)c1)c1csc(NC(=O)C(N)=O)n1` (stereo unspecified) yielded a melting point of 179 to 180 °C. `COc1ccc(NC(=O)CC23CC4CC(CC(C4)C2)C3)c(C)c1` gave a melting point of 156 to 157 °C. In the case of `C[C@@H](Nc1ncnc2cc(OCCOS(C)(=O)=O)c([N+](=O)[O-])cc12)c1ccccc1`, the melting point is reported as 128 to 134 °C. `NC(=O)c1cc(-c2ncc(C(F)(F)F)cc2Cl)ccc1Cl` showed a melting point of 167 to 168 °C. `Cc1nn(C)c(NC=O)c1C1=CCC(C)CC1` (stereo unspecified) showed a melting point of 97 to 99 °C. Molecule `CC(C)C(=O)NCC(C)(C)N` has a melting point of 134 to 138 °C. In the case of `OC(CNc1nnc2n1CCCC2)COc1cccc(CN2CCCCC2)c1` (stereo unspecified), the melting point is reported as 141 to 142 °C.
